For eleven compounds, GI50 and TGI results are on record in PubChem BioAssay (NCI).

What all share (experiment): NCI anticancer screen, dose series, 48 h
In assay [1] the test system is HCC-2998 colon.
Assay [2] concerns HOP-92 NSCLC.
Assay [3] concerns IGROV1 ovarian.
The subject of assay [4] is NCI-H226 lung.
For assay [5], the system named is NCI-H23 lung.
For assay [6], the system named is OVCAR-8 ovarian.
In assay [7] the test system is RPMI-8226 leukemia.
Assay [8] concerns RXF 393 renal.
In assay [9] the test system is SK-MEL-28 melanoma.
Assay [10] concerns UO-31 renal.

Molecules are shown by their SMILES.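 The compound was tested at five concentrations on cells cultured in 96-well plates, with a 48-hour exposure period. GI50 marks 50% less growth. The concentration for full growth arrest is given as TGI.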

Consider `C[C@]12CC[C@@H]3c4cc(OC(F)F)c(OS(N)(=O)=O)cc4CC[C@H]3[C@@H]1CC[C@@H]2O`, for which the GI50 is 1.04 µM in assay [1]; 1.64 µM in [2]; 0.646 µM in [3]; 1.8 µM in assay [4]; 0.621 µM in assay [5]; 0.848 µM in assay [6]. The GI50 in assay [7] is 0.449 µM; in assay [8], 0.139 µM; in assay [9], 1.43 µM; in assay [10], 0.769 µM. Further, the TGI in assay [1] is 14 µM; in assay [2], 28.6 µM; in assay [3], 24.9 µM; in assay [4], 21.8 µM; in [5], 20.1 µM; in [6], 60.7 µM. Also, the TGI came out at 21.9 µM in assay [7], 0.589 µM in assay [8], 24.6 µM in [9] and 26.6 µM in assay [10].
Turning to `CSc1nc2sc3c(c2c(=O)n1-c1ccc(C(C)C)cc1)CCC(=O)C3`, the GI50 was 2.47 µM in [1]; 2.21 µM in assay [2]; 2.02 µM in [3]; 1.99 µM in [4]; 2.2 µM in [5]; 2.12 µM in assay [6]. Besides, the GI50 is 2.1 µM in [7], 2.21 µM in assay [8], 2.45 µM in assay [9] and 1.57 µM in assay [10]. For the same compound, the TGI turned out to be 5.02 µM in assay [1]; 5.24 µM in assay [2]; 4.88 µM in assay [3]; 4.68 µM in assay [4]; 4.53 µM in assay [5]; 4.49 µM in assay [6]. Moreover, the TGI in assay [7] is 5.07 µM; in [8] it was 5.37 µM; in assay [9] it was 4.62 µM; in assay [10], 3.26 µM.
Turning to `O=C(CC1(O)C(=O)N(Cc2ccccc2)c2ccccc21)c1ccc(C(=O)NCC2CCC3(CC2)OOC2(CCCCC2)OO3)cc1` (stereo not drawn), the GI50 is 2.3 µM in assay [1]; 0.184 µM in [2]; 0.408 µM in [3]; 3.5 µM in assay [4]; 0.402 µM in assay [5]; 0.287 µM in assay [6]. Further, the GI50 in assay [7] was 0.886 µM; in assay [8], 0.705 µM; in [9] it was 4.96 µM; in [10], 0.176 µM. The TGI was found to be 5.06 µM in [1]; 0.434 µM in assay [2]; 1.62 µM in assay [3]; 10.8 µM in assay [4]; 1.28 µM in assay [5]; 0.817 µM in assay [6]. The TGI was 3.43 µM in [7], 1.98 µM in assay [8], 26.8 µM in assay [9] and 0.338 µM in [10].
In the case of `Cn1cc(C2=C(c3cccc(OC[C@@H](O)CO)c3)C(=O)NC2=O)c2ccccc21`, the GI50 in [1] was greater than 25 µM; in assay [2], greater than 25 µM; in assay [3], greater than 25 µM; in [4], 16.9 µM; in [5], greater than 25 µM; in assay [6] it was greater than 25 µM. Also, the GI50 was greater than 25 µM in [7], 2.08 µM in assay [8], greater than 25 µM in assay [9] and greater than 19.1 µM in [10]. In addition, the TGI in assay [1], in assay [2], in assay [3], in [4], in assay [5] and in [6] was greater than 25 µM in each case. The TGI in [7], in assay [8], in assay [9] and in [10] was greater than 25 µM throughout.
On to `O=[N+]([O-])c1ccc(N2CCOCC2)c2c1no[n+]2[O-]`, for which the GI50 in [1] is 1.53 µM; in [2] it was 0.923 µM; in assay [3], 1.3 µM; in assay [4], 2.91 µM; in assay [5], 1.08 µM; in assay [6] it was 1.1 µM. Also, the GI50 was 1.51 µM in assay [7], 1.49 µM in assay [8], 4.32 µM in assay [9] and 1.42 µM in [10]. The TGI was determined as 7.25 µM in [1]; 5.62 µM in assay [2]; 4.15 µM in assay [3]; 17.5 µM in [4]; 4.83 µM in assay [5]; 2.62 µM in assay [6]. For the same compound, the TGI in [7] is 4.09 µM; in assay [8] it was 4.01 µM; in assay [9], 16 µM; in assay [10] it was 5.07 µM.
Turning to `Nc1nc(Nc2ccccc2SSc2ccccc2Nc2nc(N)nc(C(Cl)(Cl)Cl)n2)nc(C(Cl)(Cl)Cl)n1`, the GI50 is 30.1 µM in assay [1]; 4.33 µM in assay [2]; 3.49 µM in assay [3]; 3.49 µM in [4]; 3.66 µM in assay [5]; 5.38 µM in assay [6]. The GI50 in assay [7] is 2.94 µM; in assay [8] it was 3.47 µM; in assay [9] it was 10.9 µM; in assay [10] it was 1.56 µM. The TGI was greater than 100 µM in assay [1]; 21.4 µM in [2]; 15.7 µM in [3]; 15.9 µM in assay [4]; 13.9 µM in [5]; 24.7 µM in assay [6]. The TGI in [7] was found to be 10.2 µM; in [8], 10.3 µM; in assay [9], 23.6 µM; in assay [10] it was 3 µM.
`CC(=O)NCc1cccc(C#Cc2cncnc2Nc2ccc(OCc3cccc(F)c3)c(Cl)c2)c1`: the GI50 in assay [1] was 9.04 µM; in assay [2], 5.66 µM; in [3], 5.51 µM; in [4], greater than 21.1 µM; in assay [5], 14.1 µM; in assay [6] it was 9.58 µM. Moreover, the GI50 in assay [7] was 15.4 µM; in assay [8], 13 µM; in assay [9], 19.8 µM; in assay [10], 3.25 µM. Also, the TGI in [1], in assay [2], in assay [3], in assay [4], in assay [5] and in [6] was greater than 25 µM throughout. The TGI in [7] is greater than 25 µM; in assay [8] it was greater than 25 µM; in [9], greater than 25 µM; in assay [10], greater than 21.1 µM.
With `COC(=O)c1cncc(/C=C/c2c(C)cc(O)cc2C)c1`, the GI50 in assay [1] is 13.3 µM; in assay [2] it was 4.97 µM; in assay [3], greater than 19.8 µM; in assay [4], greater than 12.7 µM; in assay [5] it was 10.5 µM; in assay [6], 17.9 µM. The GI50 in assay [7] was 9.03 µM; in [8], 5.97 µM; in assay [9], greater than 12.7 µM; in assay [10] it was 14.5 µM. Also, the TGI was greater than 25 µM in assay [1]; greater than 22.1 µM in assay [2]; greater than 25 µM in assay [3]; greater than 25 µM in assay [4]; greater than 25 µM in assay [5]; greater than 25 µM in assay [6]. For the same compound, the TGI is greater than 25 µM in [7], 16.7 µM in assay [8], 24.8 µM in assay [9] and greater than 25 µM in assay [10].
Consider `COc1cc2nc(-c3cc(F)ccc3O)nc(N[C@@H]3CNC[C@H]3C(C)(C)O)c2cc1OC`, for which the GI50 in [1] is 1.92 µM; in assay [2], 0.465 µM; in assay [3], 1.47 µM; in assay [4] it was 1.48 µM; in [5] it was 1.67 µM; in assay [6], 1.63 µM. Besides, the GI50 in [7] was 2.15 µM; in assay [8], 1.27 µM; in assay [9] it was 1.86 µM; in [10], 1.56 µM. Besides, the TGI is 3.47 µM in assay [1]; 1.9 µM in [2]; 3.43 µM in assay [3]; 4.38 µM in assay [4]; 3.42 µM in assay [5]; 3.07 µM in [6]. Besides, the TGI in assay [7] was found to be 5.14 µM; in assay [8], 2.55 µM; in [9], 3.41 µM; in [10], 3.21 µM.
Regarding `N#CCCN1C/C(=C/c2ccc(Cl)cc2)C(=O)/C(=C/c2ccc(Cl)cc2)C1`, the GI50 in assay [1] was 1.84 µM; in assay [2], 1.81 µM; in assay [3], 1.75 µM; in [4], 2.35 µM; in assay [5], 2.18 µM; in [6] it was 0.543 µM. Also, the GI50 is 0.255 µM in [7], 1.22 µM in assay [8], 1.91 µM in assay [9] and 1.39 µM in [10]. The TGI was found to be 3.33 µM in assay [1]; 5 µM in [2]; 3.95 µM in assay [3]; 8.48 µM in assay [4]; 5.61 µM in assay [5]; 11.6 µM in [6]. Besides, the TGI in assay [7] stood at 0.795 µM; in [8] it was 2.61 µM; in assay [9], 3.9 µM; in [10] it was 2.77 µM.
As for `COc1ccc(NC(=O)C2CCC(CNS(=O)(=O)c3ccccc3)CC2)cc1OC` (stereo not drawn), the GI50 in assay [1], in assay [2], in assay [3], in assay [4], in assay [5] and in assay [6] was greater than 100 µM in each case. The GI50 in assay [7], in assay [8] and in [10] was greater than 100 µM each time. Also, the TGI in assay [1], in assay [2], in assay [3], in [4], in assay [5] and in [6] was greater than 100 µM throughout. Moreover, the TGI in [7], in [8] and in assay [10] was greater than 100 µM in each case.
